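Test compounds were applied to cells in 96-well plates for 48 hours at 5 doses. Here, GI50 denotes the concentration required for 50% inhibition of growth.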 Calls of active or inactive are those of the source. Rule as the data show it: active = GI50 up to about 1.1 µM and inactive = higher.
How the values were obtained:
Test in all cases: inhibition of tumour cell growth, NCI panel, 48 h
M14 = test system: M14
IGROV-1 = test system: IGROV-1
MDA-N = test system: MDA-N
HOP-92 = test system: HOP-92
SNB-75 = test system: SNB-75
COLO 205 = test system: COLO 205
SW-620 = test system: SW-620
LOX IMVI = test system: LOX IMVI
NCI-H226 = test system: NCI-H226
Malme-3M = test system: Malme-3M
UO-31 = test system: UO-31
A498 = test system: A498
ACHN = test system: ACHN
786-0 = test system: 786-0
T47D = test system: T47D
BT-549 = test system: BT-549
SF-268 = test system: SF-268
NCI-H522 = test system: NCI-H522
HL-60 = test system: HL-60
MOLT-4 = test system: MOLT-4

SMILES | GI50 (M14) | GI50 (IGROV-1) | GI50 (MDA-N) | GI50 (HOP-92) | GI50 (SNB-75) | GI50 (COLO 205) | GI50 (SW-620) | GI50 (LOX IMVI) | GI50 (NCI-H226) | GI50 (Malme-3M) | GI50 (UO-31) | GI50 (A498) | GI50 (ACHN) | GI50 (786-0) | GI50 (T47D) | GI50 (BT-549) | GI50 (SF-268) | GI50 (NCI-H522) | GI50 (HL-60) | GI50 (MOLT-4)
Nc1nc(O)c2nc3c(nc2n1)C(=O)N(c1ccc(C(=O)O)cc1)C3 | > 100 µM (inactive) | > 100 µM (inactive) | > 100 µM (inactive) | > 100 µM (inactive) | > 100 µM (inactive) | > 100 µM (inactive) | > 100 µM (inactive) | > 100 µM (inactive) | > 100 µM (inactive) | > 100 µM (inactive) | > 100 µM (inactive) | > 100 µM (inactive) | > 100 µM (inactive) | > 100 µM (inactive) | > 100 µM (inactive) | > 100 µM (inactive) | > 100 µM (inactive) | > 100 µM (inactive) |  | 
Sc1nnc(NNc2ccccc2)n1Nc1ccccc1 | 2.02 µM (inactive) | 19.8 µM (inactive) | 2.05 µM (inactive) | 25.3 µM (inactive) | > 44.7 µM (inactive) | 0.109 µM (active) | 28.7 µM (inactive) |  | 22.6 µM (inactive) |  |  | 39.4 µM (inactive) | 0.824 µM (active) | > 71 µM (inactive) | 0.528 µM (active) | 8.69 µM (inactive) | > 82.4 µM (inactive) | 42.5 µM (inactive) | 0.04 µM (active) | 0.625 µM (active)
O=c1c2sc3nc(NCCN4CCCCC4)ncc3c2ncn1-c1ccccc1 | 19.6 µM (inactive) | 40 µM (inactive) | 80.5 µM (inactive) | 27.3 µM (inactive) | 45.3 µM (inactive) | 41.3 µM (inactive) | 46.7 µM (inactive) | 17.3 µM (inactive) | 93.8 µM (inactive) | 20.1 µM (inactive) | 19.7 µM (inactive) | > 100 µM (inactive) | 42 µM (inactive) | 80.7 µM (inactive) | 35.8 µM (inactive) | 85.9 µM (inactive) | 60 µM (inactive) | 41 µM (inactive) |  | 67.8 µM (inactive)
CCOP(=O)(OCC)C(C(=O)OC)C(=O)C(=O)Nc1cccc(O)c1 (stereo unspecified) | > 100 µM (inactive) | > 100 µM (inactive) | > 100 µM (inactive) | > 100 µM (inactive) | > 100 µM (inactive) | > 100 µM (inactive) | > 100 µM (inactive) | > 100 µM (inactive) | > 100 µM (inactive) | > 100 µM (inactive) | > 100 µM (inactive) | > 100 µM (inactive) | > 100 µM (inactive) | > 100 µM (inactive) | > 100 µM (inactive) | > 100 µM (inactive) | > 100 µM (inactive) | > 100 µM (inactive) |  | > 100 µM (inactive)
O=c1[nH]c2ccccc2c2nc3ccccc3n12 | > 100 µM (inactive) | 0.61 µM (active) | > 100 µM (inactive) | 13.9 µM (inactive) |  | 29.2 µM (inactive) | 61.2 µM (inactive) | > 100 µM (inactive) |  | 13.1 µM (inactive) | 8.49 µM (inactive) | > 100 µM (inactive) | 7.03 µM (inactive) | 81.8 µM (inactive) | > 100 µM (inactive) | 83 µM (inactive) | 53.7 µM (inactive) | 7.21 µM (inactive) | > 100 µM (inactive) | 36.9 µM (inactive)
Cc1cc2c(cc1-c1cc3c(cc1C)C(C(C)C)=C(O)C(=O)/C3=C\Nc1c(C)n(C)n(-c3ccccc3)c1=O)/C(=C/Nc1c(C)n(C)n(-c3ccccc3)c1=O)C(=O)C(O)=C2C(C)C | 50.1 µM (inactive) | 51.1 µM (inactive) | > 100 µM (inactive) | 78.2 µM (inactive) | > 100 µM (inactive) | 82.6 µM (inactive) | 61.9 µM (inactive) |  | 98.2 µM (inactive) | > 100 µM (inactive) | > 100 µM (inactive) | > 100 µM (inactive) | 47.5 µM (inactive) | 62.1 µM (inactive) | > 100 µM (inactive) | > 100 µM (inactive) | > 100 µM (inactive) | > 100 µM (inactive) | 33.9 µM (inactive) | 41.2 µM (inactive)
Cc1ccc(S(=O)(=O)N/N=C2\CCC3(O)CC2(C)CCC2C3CC2(C)C)cc1 (stereo unspecified) | 47.9 µM (inactive) | 45.1 µM (inactive) | 38.5 µM (inactive) | 28.4 µM (inactive) |  | 22.5 µM (inactive) | 78 µM (inactive) | 32.1 µM (inactive) | 27.4 µM (inactive) | 53.2 µM (inactive) | 24.4 µM (inactive) | 36.8 µM (inactive) | 31.8 µM (inactive) | 45.3 µM (inactive) | 35.1 µM (inactive) | 65.3 µM (inactive) | 37.4 µM (inactive) | 20.9 µM (inactive) | > 100 µM (inactive) | 85.9 µM (inactive)
CCOC(=O)c1cc(-c2ccc(OC)c(OC)c2)c[nH]1 | > 10 µM (inactive) | > 10 µM (inactive) | > 10 µM (inactive) | > 10 µM (inactive) | 5.08 µM (inactive) | > 10 µM (inactive) |  | > 10 µM (inactive) | > 10 µM (inactive) | > 10 µM (inactive) | > 10 µM (inactive) | > 10 µM (inactive) | > 10 µM (inactive) | > 10 µM (inactive) | > 10 µM (inactive) | > 10 µM (inactive) | > 10 µM (inactive) | > 10 µM (inactive) | > 10 µM (inactive) | > 10 µM (inactive)
O=C1C=CC(=O)c2c1ccc1c3ccccc3n(CCCCCCCCCCCCn3c4ccccc4c4ccc5c(c43)C(=O)C=CC5=O)c21 | > 100 µM (inactive) | > 100 µM (inactive) | > 100 µM (inactive) | > 100 µM (inactive) | > 100 µM (inactive) | > 100 µM (inactive) | > 100 µM (inactive) | > 100 µM (inactive) | > 100 µM (inactive) | > 100 µM (inactive) | > 100 µM (inactive) | > 100 µM (inactive) | > 100 µM (inactive) | > 65.8 µM (inactive) | > 100 µM (inactive) | > 100 µM (inactive) | > 100 µM (inactive) | > 83.6 µM (inactive) | 46.7 µM (inactive) | 49.9 µM (inactive)
O=C(N/N=C/c1ccccc1O)c1ccccc1Nc1ccccc1C(=O)N/N=C/c1ccccc1O | 0.953 µM (active) | 0.458 µM (active) | > 100 µM (inactive) | 2.26 µM (inactive) | 3.09 µM (inactive) | 0.303 µM (active) |  | 0.154 µM (active) | 0.403 µM (active) | 0.29 µM (active) | 0.411 µM (active) | > 100 µM (inactive) | 0.394 µM (active) | 0.214 µM (active) | 0.859 µM (active) | 7.03 µM (inactive) | 0.255 µM (active) | 0.277 µM (active) | 1.69 µM (inactive) | 0.102 µM (active)
CC1OC(OC2C(O)COC(OC3C(C)OC(OC4C(OC(=O)[C@]56CCC(C)(C)C[C@@H]5C5=CCC7[C@@]8(C)C[C@H](O)[C@H](OC9OC(CO)C(O)C(O)C9O)[C@@](C)(CO)[C@@H]8CC[C@@]7(C)[C@]5(C)CC6)OCC(O)C4O)C(O)C3OC3OCC(O)C(O)C3O)C2O)C(O)C(O)C1O (stereo partly specified) | 11 µM (inactive) |  | 18.8 µM (inactive) | 24.8 µM (inactive) | 22.6 µM (inactive) | 4.46 µM (inactive) | 14.9 µM (inactive) | 18.9 µM (inactive) | 23.1 µM (inactive) | 34.4 µM (inactive) | 5.19 µM (inactive) | 14.3 µM (inactive) | 17.8 µM (inactive) | 15.5 µM (inactive) | 20.2 µM (inactive) | 31.9 µM (inactive) | 29.2 µM (inactive) | 44.9 µM (inactive) |  | 20.1 µM (inactive)
C[Si](C)(C)OC1c2[nH]c3ccccc3c2CN2C(=O)CCC12 (stereo unspecified) | > 100 µM (inactive) | > 100 µM (inactive) | > 100 µM (inactive) | > 100 µM (inactive) | > 100 µM (inactive) | > 100 µM (inactive) | > 100 µM (inactive) | > 100 µM (inactive) | > 100 µM (inactive) |  | > 100 µM (inactive) | > 100 µM (inactive) | > 100 µM (inactive) | > 100 µM (inactive) | > 100 µM (inactive) | > 100 µM (inactive) | > 100 µM (inactive) | > 100 µM (inactive) | > 100 µM (inactive) | > 100 µM (inactive)
CCC(=O)Oc1ccc2c(c1)c(=O)c1c(NCCCN(C)C)ccc3nnn2c31 | 5.3 µM (inactive) | 0.0914 µM (active) | 3.86 µM (inactive) | 3.48 µM (inactive) |  | 1.99 µM (inactive) | 0.322 µM (active) | 1.03 µM (active) | 2.31 µM (inactive) | 3.98 µM (inactive) | 0.953 µM (active) | 2.77 µM (inactive) | 0.385 µM (active) | 0.361 µM (active) | 15.7 µM (inactive) | 12.3 µM (inactive) | 1.8 µM (inactive) | 0.188 µM (active) |  | < 0.0204 µM (active)
FC(F)(F)c1ccc(C2ON=C(c3ccccc3)N2C23CC4CC(CC(C4)C2)C3)cc1 (stereo unspecified) | > 10 µM (inactive) | > 10 µM (inactive) | > 10 µM (inactive) | > 10 µM (inactive) | > 10 µM (inactive) | > 10 µM (inactive) | > 10 µM (inactive) | > 10 µM (inactive) | > 10 µM (inactive) | > 10 µM (inactive) |  | > 10 µM (inactive) | > 10 µM (inactive) | > 10 µM (inactive) | > 10 µM (inactive) | > 10 µM (inactive) | > 10 µM (inactive) | > 10 µM (inactive) | > 10 µM (inactive) | > 10 µM (inactive)
